Source: ChEMBL document CHEMBL4732190, “Identification of Potent and Long-Acting Single-Chain Peptide Mimetics of Human Relaxin-2 for Cardiovascular Diseases” (J Med Chem, 2021)
≈ marks a conversion by molar mass, not a printed value. *1 amine or outer side, *2 acyl side, *3 side chain or, on linkers, in order; H or OH if unused. Where a SMILES comes first, the peptide text is derived from it. [ ]: non-standard residue; d: D form. The star is where a group is joined. PEG11 = NCCOCCOCCOCCOCCOCCOCCOCCOCCOCCOCCOCCC(=O)O; X1 = CCCCCCCCCCCCCCCCC(=O)[C@H](CCC(N)=O)N*; β2hAla(2S) = C[C@@H](CN[*:1])C(=O)[*:2]; Nle = CCCC[C@H](N)C(=O)O

What was measured:
Relaxin receptor 1 [1] = target: T1, Relaxin receptor 1 (Homo sapiens, UniProt Q9HBX9); assay: Agonist activity at RXFP1 endogenously expressed in human OVCAR-5 cells assessed as increase in IBMX-induced cAMP accumulation pretreated with IBMX for 40 mins followed by compound addition and measured after 30 mins in presence of 2 % HSA by HTRF assay; assay type: functional, cell-based
T1 sequence (Q9HBX9 whole entry): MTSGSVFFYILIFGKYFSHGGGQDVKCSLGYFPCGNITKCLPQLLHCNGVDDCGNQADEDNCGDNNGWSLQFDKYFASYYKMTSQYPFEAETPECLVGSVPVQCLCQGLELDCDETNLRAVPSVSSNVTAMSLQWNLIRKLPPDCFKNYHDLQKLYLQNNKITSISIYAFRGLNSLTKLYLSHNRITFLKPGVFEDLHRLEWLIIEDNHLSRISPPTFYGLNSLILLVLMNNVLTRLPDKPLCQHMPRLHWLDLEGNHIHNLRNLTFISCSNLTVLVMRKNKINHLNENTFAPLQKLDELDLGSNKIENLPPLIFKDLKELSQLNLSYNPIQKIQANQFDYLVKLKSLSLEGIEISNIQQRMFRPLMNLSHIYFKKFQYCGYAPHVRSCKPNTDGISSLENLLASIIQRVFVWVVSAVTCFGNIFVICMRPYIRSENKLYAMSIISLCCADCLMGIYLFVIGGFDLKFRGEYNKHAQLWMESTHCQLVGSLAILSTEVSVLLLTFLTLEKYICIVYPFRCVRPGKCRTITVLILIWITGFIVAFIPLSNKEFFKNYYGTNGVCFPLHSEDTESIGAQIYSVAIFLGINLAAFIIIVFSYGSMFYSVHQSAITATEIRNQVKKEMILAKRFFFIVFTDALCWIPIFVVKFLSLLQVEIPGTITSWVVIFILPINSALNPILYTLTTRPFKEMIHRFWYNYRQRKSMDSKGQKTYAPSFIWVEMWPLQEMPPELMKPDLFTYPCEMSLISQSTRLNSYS

[2] = target: T2, Relaxin receptor 1 (Rattus norvegicus) (UniProt Q6R6I6); assay: Agonist activity at rat RXFP1 expressed in human […] cells assessed as increase in IBMX-induced cAMP accumulation pretreated with IBMX for 40 mins followed by compound addition and measured after 30 mins by HTRF assay relative to control; assay type: cell-based; conditions: HEK293, filed as agonist
T2 sequence (whole entry): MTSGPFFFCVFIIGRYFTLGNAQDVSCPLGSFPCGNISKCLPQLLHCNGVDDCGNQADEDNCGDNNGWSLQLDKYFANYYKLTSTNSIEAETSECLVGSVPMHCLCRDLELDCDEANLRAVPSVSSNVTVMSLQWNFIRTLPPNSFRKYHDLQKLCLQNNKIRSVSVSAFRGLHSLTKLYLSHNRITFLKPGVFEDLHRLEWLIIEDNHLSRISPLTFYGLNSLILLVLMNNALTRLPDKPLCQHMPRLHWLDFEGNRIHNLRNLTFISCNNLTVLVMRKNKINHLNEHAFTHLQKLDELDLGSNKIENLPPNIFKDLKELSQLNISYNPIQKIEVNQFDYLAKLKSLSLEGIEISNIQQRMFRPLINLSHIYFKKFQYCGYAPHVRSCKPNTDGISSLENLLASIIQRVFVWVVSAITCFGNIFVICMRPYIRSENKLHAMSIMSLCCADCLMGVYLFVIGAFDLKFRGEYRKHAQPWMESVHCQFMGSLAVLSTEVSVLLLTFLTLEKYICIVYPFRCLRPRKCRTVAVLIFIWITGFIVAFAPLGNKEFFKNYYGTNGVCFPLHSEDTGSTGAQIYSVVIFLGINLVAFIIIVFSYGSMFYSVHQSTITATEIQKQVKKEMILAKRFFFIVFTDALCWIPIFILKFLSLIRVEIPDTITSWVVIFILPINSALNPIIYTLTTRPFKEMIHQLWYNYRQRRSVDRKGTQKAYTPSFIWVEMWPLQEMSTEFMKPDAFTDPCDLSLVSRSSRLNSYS

[3] = target: T2, Relaxin receptor 1 (Rattus norvegicus); assay: Selectivity index, ratio of EC50 for agonist activity at rat RXFP1 expressed in human […] cells in presence of RSA by HTRF assay to EC50 for EC50 for agonist activity at rat RXFP1 expressed in human […] cells in absence of RSA by HTRF assay; assay type: cell-based; conditions: HEK293, time 30.0 min
[4] = Half life in Sprague-Dawley rat at 1 mg/kg, iv measured upto 72 hrs by LC-HRMS analysis; assay type: ADME, organism-based; conditions: in vivo
[5] = target: T3, Relaxin receptor 1 (Homo sapiens) (UniProt Q9HBX9); assay: Agonist activity at RXFP1 endogenously expressed in human OVCAR-5 cells assessed as increase in IBMX-induced cAMP accumulation pretreated with IBMX for 40 mins followed by compound addition and measured after 30 mins in presence of 2 % HSA by HTRF assay relative to control; assay type: functional, cell-based; conditions: filed as agonist
T3 sequence (whole entry): T1 sequence (Q9HBX9 whole entry)

[6] = target: T3, Relaxin receptor 1 (Homo sapiens); assay: Selectivity ratio of EC50 for agonist activity at RXFP1 endogenously expressed in human OVCAR-5 cells in presence of 2 % HSA to EC50 for agonist activity at RXFP1 endogenously expressed in human OVCAR-5 cells in absence of HSA; assay type: cell-based
[7] = Positive chronotropic activity in pithed Sprague-Dawley rat assessed as increase in heart rate at 20 to 1000 mg/kg, iv administered as bolus dose measured after 60 mins post dose; assay type: ADME, organism-based; conditions: in vivo, 1 h, dose 20-1000 mg/kg
[8] = target: T3, Relaxin receptor 1 (Homo sapiens); assay: Agonist activity at RXFP1 endogenously expressed in human OVCAR-5 cells assessed as increase in IBMX-induced cAMP accumulation pretreated with IBMX for 40 mins followed by compound addition and measured after 30 mins by HTRF assay relative to relaxin; assay type: functional, cell-based; conditions: filed as agonist
Relaxin receptor 1 [9] = target: T1, Relaxin receptor 1; assay: Agonist activity at RXFP1 endogenously expressed in human OVCAR-5 cells assessed as increase in IBMX-induced cAMP accumulation pretreated with IBMX for 40 mins followed by compound addition and measured after 30 mins by HTRF assay; assay type: functional, cell-based
[10] = Positive chronotropic activity in pithed Sprague-Dawley rat assessed as increase in heart rate at 1000 mg/kg, iv administered as bolus dose measured after 60 mins post dose; assay type: ADME, organism-based; conditions: in vivo, 1 h
Relaxin receptor 1 [11] = target: T4, Relaxin receptor 1 (Rattus norvegicus, UniProt Q6R6I6); assay: Agonist activity at rat RXFP1 expressed in human […] cells assessed as increase in IBMX-induced cAMP accumulation pretreated with IBMX for 40 mins followed by compound addition and measured after 30 mins by HTRF assay; assay type: cell-based, HEK293
T4 sequence (Q6R6I6 whole entry): T2 sequence (whole entry)

[12] = Aqueous solubility of compound in acetate buffer at pH 4.5 measured after 24 hrs by UPLC analysis; assay type: physicochemical
[13] = Aqueous solubility of compound in phosphate buffer at pH 7.4 measured after 24 hrs by UPLC analysis; assay type: physicochemical
[14] = Stability in human plasma assessed as parent compound remaining level at 5 uM remaining after 4 hrs; assay type: ADME, cell-free; conditions: read-out: Stabilty
[15] = Positive chronotropic activity in pithed Sprague-Dawley rat assessed as increase in heart rate at 300 microg/kg, iv administered as bolus dose recorded over 60 mins relative to control; assay type: ADME, organism-based; conditions: in vivo, 0.3 mg/kg, 1 h, dose 300 µg/kg
[16] = Stability in rat plasma assessed as parent compound remaining level at 5 uM remaining after 4 hrs; assay type: ADME, cell-free; conditions: read-out: Stabilty

EC50 (Relaxin receptor 1 [1]) [nM]	Emax [2] [%]	Ratio EC50 [3]	half-life [4] [h]	Emax [5] [%]	Ratio EC50 [6]	Emax [8] [%]	EC50 (Relaxin receptor 1 [9]) [nM]	EC50 (Relaxin receptor 1 [11]) [nM]	solubility at 24 h [12] [µg/mL]	solubility at 24 h [13] [µg/mL]	remaining at 4 h, 5 µM [14] [%]	remaining at 4 h, 5 µM [16] [%]	Structure (SMILES)	Activity [7]	Emin [10] [%]	Activity [15] [%]
270	79	33	8.9	88	75	88	3.6	0.9					CCCCCCCCCCCCCCCCC(=O)[C@H](CCC(N)=O)NC(=O)[C@H](CCC(=O)O)NC(=O)[C@H](CCC(=O)O)NC(=O)[C@H](CCCCN)NC(=O)CCOCCOCCOCCOCCOCCOCCOCCOCCOCCOCCOCCNC(=O)[C@H](CCCCN)NC(=O)[C@H](CCCNC(=N)N)NC(=O)[C@@H](C)CNC(=O)[C@H](CO)NC(=O)[C@H](Cc1c[nH]c2ccccc12)NC(=O)[C@@H](NC(=O)[C@H](CO)NC(=O)[C@H](CCSC)NC(=O)CNC(=O)[C@H](CCC(=O)O)NC(=O)[C@@H](C)CNC(=O)[C@@H](C)CNC(=O)[C@@H](NC(=O)[C@H](CCC(N)=O)NC(=O)[C@H](C)NC(=O)[C@H](CCCNC(=N)N)NC(=O)[C@@H](NC(=O)[C@H](CCCCN)NC(=O)[C@H](CCC(=O)O)NC(=O)[C@H](CCCNC(=N)N)NC(=O)[C@H](CCC(=O)O)NC(=O)CNC(=O)[C@H](CCC(=O)O)NC(=O)[C@H](CC(C)C)NC(C)=O)C(C)C)[C@@H](C)CC)[C@@H](C)O (Ac-LEGEREKVRAQI[β2hAla(2S)][β2hAla(2S)]EGMSTWS[β2hAla(2S)]RK[PEG11]KEE-X1)	Dose-dependent effect	30	
	83		0.32			99	12	5.3	3300 (≈ 1190 µM)	2900 (≈ 1050 µM)	64	55	CCCC[C@H](NC(=O)CNC(=O)[C@H](CCC(=O)O)NC(=O)[C@@H](C)CNC(=O)[C@@H](C)CNC(=O)[C@@H](NC(=O)[C@H](CCC(N)=O)NC(=O)[C@H](C)NC(=O)[C@H](CCCNC(=N)N)NC(=O)[C@@H](NC(=O)[C@H](CCCCN)NC(=O)[C@H](CCC(=O)O)NC(=O)[C@H](CCCNC(=N)N)NC(=O)CNC(=O)[C@H](CCC(=O)O)NC(=O)[C@H](CC(C)C)NC(C)=O)C(C)C)[C@@H](C)CC)C(=O)N[C@@H](CO)C(=O)N[C@H](C(=O)N[C@@H](Cc1c[nH]c2ccccc12)C(=O)N[C@@H](CO)C(=O)NC[C@H](C)C(=O)N[C@@H](CCCNC(=N)N)C(=O)N[C@@H](CCCCN)C(=O)N[C@@H](CCCCN)C(N)=O)[C@@H](C)O (Ac-LEGREKVRAQI[β2hAla(2S)][β2hAla(2S)]EG[Nle]STWS[β2hAla(2S)]RKK-NH2)		43	40
